Measured values published in ChEMBL document CHEMBL4673302, “Efficient synthesis and antitumor evaluation of 4-aminomethyl-N-arylpyrazoles: Discovery of potent and selective agents for ovarian cancer” (Bioorg Med Chem, 2021).

Tests used:
U-251 = test: Anticancer activity against human U-251 cells assessed as cell growth inhibition measured after 48 hrs by sulforhodamine B assay; assay type: functional
MCF7 = test: Anticancer activity against human MCF7 cells assessed as cell growth inhibition measured after 48 hrs by sulforhodamine B assay; assay type: functional
786-0 = test: Anticancer activity against human 786-0 cells assessed as cell growth inhibition measured after 48 hrs by sulforhodamine B assay; assay type: functional
NCI-H460 = test: Anticancer activity against human NCI-H460 cells assessed as cell growth inhibition measured after 48 hrs by sulforhodamine B assay; assay type: functional
PC-3 = test: Anticancer activity against human PC-3 cells assessed as cell growth inhibition measured after 48 hrs by sulforhodamine B assay; assay type: functional
OVCAR-3 = test: Anticancer activity against human OVCAR-3 cells assessed as cell growth inhibition measured after 48 hrs by sulforhodamine B assay; assay type: functional
HT-29 = test: Anticancer activity against human HT-29 cells assessed as cell growth inhibition measured after 48 hrs by sulforhodamine B assay; assay type: functional
K562 = test: Anticancer activity against human K562 cells assessed as cell growth inhibition measured after 48 hrs by sulforhodamine B assay; assay type: functional
[1] = (§1) Cytotoxicity against human HaCaT cells assessed as cell growth inhibition measured after 48 hrs by sulforhodamine B assay; assay type: cell-based; settings: HaCaT cells
HaCaT = test: as §1; assay type: cell-based; settings: hacat, 48 h

| GI50 (U-251; Homo sapiens, U-251, 48 h) | GI50 (MCF7; Homo sapiens, MCF7, 48 h) | GI50 (786-0; Homo sapiens, 786-0, 48 h) | GI50 (NCI-H460; Homo sapiens, NCI-H460, 48 h) | GI50 (PC-3; Homo sapiens, PC-3, 48 h) | GI50 (OVCAR-3; Homo sapiens, OVCAR-3, 48 h) | GI50 (HT-29; Homo sapiens, HT-29, 48 h) | GI50 (K562; Homo sapiens, K562, 48 h) | GI50 (K562; 48 h) | GI50 (MCF7; 48 h) | GI50 (786-0; 48 h) | GI50 (NCI-H460; 48 h) | GI50 (OVCAR-3; 48 h) | GI50 (U-251; 48 h) | GI50 (PC-3; 48 h) | GI50 (HT-29; 48 h) | Structure (SMILES) | GI50 at 48 h [1] | GI50 (HaCaT) |
| --- | --- | --- | --- | --- | --- | --- | --- | --- | --- | --- | --- | --- | --- | --- | --- | --- | --- | --- |
| > 584 µM | 550 µM | 104 µM | 141 µM | > 584 µM | 162 µM | > 584 µM | 158 µM |  |  |  |  |  |  |  |  | CC(C)(C)NCc1c(C(=O)O)nn(-c2ccc(Cl)cc2)c1-c1ccc([N+](=O)[O-])cc1 | > 584 µM |  |
| 498 µM | 220 µM | > 605 µM | > 605 µM | > 605 µM | 121 µM | > 605 µM | > 605 µM |  |  |  |  |  |  |  |  | COc1ccc(-c2c(CNC(C)(C)C)c(C(=O)O)nn2-c2ccc(Cl)cc2)cc1 | 121 µM |  |
| > 608 µM | > 608 µM | > 608 µM | > 608 µM | > 608 µM | > 608 µM | 336 µM |  | 64.5 µM |  |  |  |  |  |  |  | CCOC(=O)c1nn(-c2ccc(Cl)cc2)c(-c2ccccc2)c1CNC(C)(C)C | > 608 µM |  |
| > 511 µM | > 511 µM | > 511 µM | > 511 µM | > 511 µM | > 511 µM | > 511 µM | > 511 µM |  |  |  |  |  |  |  |  | CCOC(=O)c1nn(-c2ccc(Cl)cc2)c(-c2ccc(Br)cc2)c1CNC(C)(C)C | > 511 µM |  |
| > 659 µM | > 659 µM | > 659 µM | > 659 µM | > 659 µM | > 659 µM | > 659 µM | > 659 µM |  |  |  |  |  |  |  |  | COc1ccc(-c2c(CNC(C)(C)C)c(C(=O)O)nn2-c2ccccc2)cc1 | > 659 µM |  |
| > 548 µM |  |  |  | > 548 µM |  | 42.3 µM |  | 181 µM | > 548 µM | 316 µM | > 548 µM | 206 µM |  |  |  | CCOC(=O)c1nn(-c2ccc(Cl)cc2)c(-c2ccc([N+](=O)[O-])cc2)c1CNC(C)(C)C |  | 10.3 µM |
| > 688 µM | > 688 µM | > 688 µM | > 688 µM | > 688 µM | 283 µM | > 688 µM | > 688 µM |  |  |  |  |  |  |  |  | Cc1ccc(-c2c(CNC(C)(C)C)c(C(=O)O)nn2-c2ccccc2)cc1 | > 688 µM |  |
| > 634 µM | > 634 µM | > 634 µM | > 634 µM | > 634 µM | > 634 µM | > 634 µM | > 634 µM |  |  |  |  |  |  |  |  | CC(C)(C)NCc1c(C(=O)O)nn(-c2ccccc2)c1-c1ccc([N+](=O)[O-])cc1 | > 634 µM |  |
| 518 µM | 246 µM | > 599 µM | > 599 µM | > 599 µM | 84.9 µM | > 599 µM | 290 µM |  |  |  |  |  |  |  |  | CC(C)(C)NCc1c(C(=O)O)nn(-c2ccc(Cl)cc2)c1-c1ccc(Cl)cc1 | 87.5 µM |  |
| > 716 µM | > 716 µM | > 716 µM | > 716 µM | > 716 µM | > 716 µM | > 716 µM | > 716 µM |  |  |  |  |  |  |  |  | CC(C)(C)NCc1c(C(=O)O)nn(-c2ccccc2)c1-c1ccccc1 | > 716 µM |  |
| > 630 µM | > 630 µM | > 630 µM | > 630 µM | > 630 µM | > 630 µM | > 630 µM | > 630 µM |  |  |  |  |  |  |  |  | Cc1ccc(-c2c(CNC(C)(C)C)c(C(=O)O)nn2-c2ccc(Cl)cc2)cc1 | > 630 µM |  |
| > 652 µM | 496 µM | > 652 µM | > 652 µM | > 652 µM | 652 µM | > 652 µM | > 652 µM |  |  |  |  |  |  |  |  | CC(C)(C)NCc1c(C(=O)O)nn(-c2ccc(Cl)cc2)c1-c1ccccc1 | 175 µM |  |
| > 681 µM | > 681 µM | > 681 µM | > 681 µM | > 681 µM |  | > 681 µM | > 681 µM |  |  |  |  |  |  |  |  | CC(C)(C)NCc1c(C(=O)O)nn(-c2ccccc2)c1-c1ccc(F)cc1 | > 681 µM |  |
| > 623 µM | 270 µM | 204 µM | > 623 µM | > 623 µM | 116 µM | > 623 µM | > 623 µM |  |  |  |  |  |  |  |  | CC(C)(C)NCc1c(C(=O)O)nn(-c2ccc(Cl)cc2)c1-c1ccc(F)cc1 | 28.7 µM |  |
| > 652 µM | > 652 µM | > 652 µM | 70.5 µM | 145 µM | > 652 µM | 353 µM | 364 µM |  |  |  |  |  |  |  |  | CC(C)(C)NCc1c(C(=O)O)nn(-c2ccccc2)c1-c1ccc(Cl)cc1 | > 652 µM |  |
| 126 µM | 293 µM | > 585 µM | > 585 µM | > 585 µM | > 585 µM | > 585 µM | > 585 µM |  |  |  |  |  |  |  |  | CC(C)(C)NCc1c(C(=O)O)nn(-c2ccccc2)c1-c1ccc(Br)cc1 | 366 µM |  |
| > 542 µM | 221 µM | 542 µM | > 542 µM | > 542 µM | 513 µM | > 542 µM | 297 µM |  |  |  |  |  |  |  |  | CC(C)(C)NCc1c(C(=O)O)nn(-c2ccc(Cl)cc2)c1-c1ccc(Br)cc1 | > 542 µM |  |
|  | 206 µM |  | 429 µM |  |  |  |  | 12 µM |  | 200 µM |  | 8.78 µM | 220 µM | > 592 µM | 71.3 µM | CCOC(=O)c1nn(-c2ccccc2)c(-c2ccc([N+](=O)[O-])cc2)c1CNC(C)(C)C | 103 µM |  |
| < 0.046 µM | < 0.046 µM |  | < 0.046 µM | 0.42 µM | 0.09 µM | 0.26 µM | 0.06 µM |  |  |  |  |  |  |  |  | COc1cccc2c1C(=O)c1c(O)c3c(c(O)c1C2=O)C[C@@](O)(C(=O)CO)C[C@@H]3O[C@H]1C[C@H](N)[C@H](O)[C@H](C)O1 [DOXORUBICIN] | < 0.046 µM |  |
